Data: patent publication US11389415B2, “Methods of regulating cannabinoid receptor activity-related disorders and diseases” (The United States of America as represented by the …, priority 2012, dated 2022)
Where two headings read alike, the source gives them in different places.

Key:
U87 = experiment: tumor cell growth, U87; settings: Table 6
MCF7 = experiment: tumor cell growth, MCF7; settings: Table 6
A549 = experiment: tumor cell growth, A549; settings: read-out: IC50 (uM), A549 (NSCLC); Table 6
U251 = experiment: tumor cell growth, U251; settings: Table 6
A172 = experiment: tumor cell growth, A172; settings: Table 6
U118 = experiment: tumor cell growth, U118; settings: read-out: IC50 (uM), U118 (CNS); Table 6
CAPAN = experiment: tumor cell growth, CAPAN; settings: Table 6
HEPG2 = experiment: tumor cell growth, HEPG2; settings: Table 6
GL261 = experiment: tumor cell growth, GL261; settings: Table 6
LN-18 = experiment: tumor cell growth, LN-18; settings: Table 6
PANC-1 = experiment: tumor cell growth, PANC-1; settings: Table 6
Du-145 = experiment: tumor cell growth, Du-145; settings: read-out: IC50 (uM), Du-145 (Prostate C); Table 6
MDAMB231 = experiment: tumor cell growth, MDAMB231; settings: Table 6
PC3 [1] = experiment: tumor cell growth (CTG), PC3
HT29 [2] = experiment: tumor cell growth (CTG), HT29
HT29 [3] = experiment: Thymidine (Thy) 96 well, HT29; settings: read-out: IC50 (uM), HT29 (Colon Cancer)
HEP3B [4] = experiment: tumor cell growth (CTG), HEP3B
HCT116 [5] = experiment: tumor cell growth (CTG), HCT116
HCT116 [6] = experiment: Thymidine (Thy) 96 well, HCT116; settings: read-out: IC50 (uM), HCT116 (Colon Cancer)
NCIH460 = experiment: Thymidine (Thy) 96 well, NCIH460; settings: read-out: IC50 (uM), NCIH460 (NSCLC)
H460 = experiment: tumor cell growth (CTG), H460 / NCIH460
LN-229 = experiment: tumor cell growth (CTG), LN-229 / LN229
PC3 [7] = experiment: [3H]-Thymidine incorporation in 96-well plates (Thy), PC3; settings: read-out: IC50 (uM), PC3 (Prostrate Cancer)
HEP3B [8] = experiment: [3H]-Thymidine incorporation in 96-well plates (Thy), HEP3B; settings: read-out: IC50 (uM), HEP3B (Liver Cancer)
LN229 = experiment: [3H]-Thymidine incorporation in 96-well plates (Thy), LN229; settings: read-out: IC50 (uM), LN229 (CNS Cancer)

Compound: COc1ccc(C[C@@H](C)NC[C@H](O)c2cc(O)cc(O)c2)cc1 [RR-MF, (R,R′)-4-methoxyfenoterol]
- IC50 (uM), U87 (CNS) (U87): N.E.
- IC50 (uM), MCF7 (Breast C) (MCF7): N.E.
- IC50 (A549): > 50 µM
- IC50 (uM), U251 (CNS) (U251): N.E.
- IC50 (uM), A172 (CNS) (A172): N.E.?
- IC50 (U118): > 50 µM
- IC50 (uM), CAPAN (Pancreatic C) (CAPAN): N.E.
- IC50 (uM), HEPG2 (Liver C) (HEPG2): N.E.
- IC50 (uM), GL261 (CNS) (GL261): N.E.?
- IC50 (uM), LN-18 (CNS) (LN-18): N.E.?
- IC50 (uM), PANC-1 (Pancreatic C) (PANC-1): N.E.
- IC50 (Du-145): > 50 µM
- IC50 (uM), MDAMB231 (Breast C) (MDAMB231): N.E.
- IC50 (PC3 [1]; read-out: IC50 (uM), PC3 (Prostate C), Table 6): > 50 µM
- IC50 (PC3 [1]; read-out: IC50 (uM), PC3 (Prostrate Cancer), 96 well CTG 1 day treatment): > 50 µM
- IC50 (PC3 [1]; read-out: IC50 (uM), PC3 (Prostrate Cancer), 96 well CTG 2 days treatment): > 50 µM
- IC50 (PC3 [1]; read-out: IC50 (uM), PC3 (Prostrate Cancer), 384well CTG 3 days treatment −1): > 50 µM
- IC50 (HT29 [2]; read-out: IC50 (uM), HT29 (Colon C), Table 6): > 50 µM
- IC50 (HT29 [2]; read-out: IC50 (uM), HT29 (Colon Cancer), 96 well CTG 1 day treatment): > 50 µM
- IC50 (HT29 [2]; read-out: IC50 (uM), HT29 (Colon Cancer), 96 well CTG 2 days treatment): > 50 µM
- IC50 (HT29 [2]; read-out: IC50 (uM), HT29 (Colon Cancer), 384well CTG 3 days treatment −1): > 50 µM
- IC50 (HT29 [3]; 96 well Thy 2 days treatment): > 50 µM
- IC50 (HT29 [3]; 96 well Tye 1 day treatment): > 50 µM
- IC50 (HEP3B [4]; read-out: IC50 (uM), HEP3B (Liver C), Table 6): > 50 µM
- IC50 (HEP3B [4]; read-out: IC50 (uM), HEP3B (Liver Cancer), 96 well CTG 1 day treatment): > 50 µM
- IC50 (HEP3B [4]; read-out: IC50 (uM), HEP3B (Liver Cancer), 96 well CTG 2 days treatment): > 50 µM
- IC50 (HEP3B [4]; read-out: IC50 (uM), HEP3B (Liver Cancer), 384well CTG 3 days treatment −1): > 50 µM
- IC50 (HEP3B [4]; read-out: IC50 (uM), HEP3B (Liver Cancer), 384well CTG 3 days treatment −2): > 50 µM
- IC50 (HCT116 [5]; read-out: IC50 (uM), HCT116 (Colon C), Table 6): > 50 µM
- IC50 (HCT116 [5]; read-out: IC50 (uM), HCT116 (Colon Cancer), 96 well CTG 1 day treatment): > 50 µM
- IC50 (HCT116 [5]; read-out: IC50 (uM), HCT116 (Colon Cancer), 96 well CTG 2 days treatment): > 50 µM
- IC50 (HCT116 [5]; read-out: IC50 (uM), HCT116 (Colon Cancer), 384well CTG 3 days treatment −1): > 50 µM
- IC50 (HCT116 [5]; read-out: IC50 (uM), HCT116 (Colon Cancer), 384well CTG 3 days treatment −2): > 50 µM
- IC50 (HCT116 [6]; 96 well Thy 2 days treatment): > 50 µM
- IC50 (HCT116 [6]; 96 well Tye 1 day treatment): > 50 µM
- IC50 (NCIH460; 96 well Thy 2 days treatment): > 50 µM
- IC50 (NCIH460; 96 well Tye 1 day treatment): > 50 µM
- IC50 (H460; read-out: IC50 (uM), H460 (NSCLC), Table 6): > 50 µM
- IC50 (H460; read-out: IC50 (uM), NCIH460 (NSCLC), 96 well CTG 1 day treatment): > 50 µM
- IC50 (H460; read-out: IC50 (uM), NCIH460 (NSCLC), 96 well CTG 2 days treatment): > 50 µM
- IC50 (H460; read-out: IC50 (uM), NCIH460 (NSCLC), 384well CTG 3 days treatment −1): > 50 µM
- IC50 (H460; read-out: IC50 (uM), NCIH460 (NSCLC), 384well CTG 3 days treatment −2): > 50 µM
- IC50 (LN-229; read-out: IC50 (uM), LN229 (CNS Cancer), 96 well CTG 1 day treatment): > 50 µM
- IC50 (LN-229; read-out: IC50 (uM), LN229 (CNS Cancer), 96 well CTG 2 days treatment): > 50 µM
- IC50 (LN-229; read-out: IC50 (uM), LN229 (CNS Cancer), 384well CTG 3 days treatment −1): > 50 µM
- IC50 (LN-229; read-out: IC50 (uM), LN-229 (CNS), Table 6): > 50 µM
- IC50 (PC3 [7]; 96 well Thy 2 days treatment): > 50 µM
- IC50 (PC3 [7]; 96 well Tye 1 day treatment): > 50 µM
- IC50 (HEP3B [8]; 96 well Thy 2 days treatment): 2.35 µM
- IC50 (HEP3B [8]; 96 well Tye 1 day treatment): 2.4 µM
- IC50 (LN229; 96 well Thy 2 days treatment): > 50 µM
- IC50 (LN229; 96 well Tye 1 day treatment): > 50 µM
